Assays:
Eef2 kinase = Eef2 kinase (Homo sapiens, UniProt O00418); assay: Eef2 kinase inhibition; assay type: biochemical
MCF7 cells = assay: Cell cycle analysis (propidium iodide flow cytometry), MCF7; assay type: cell-based, human
Protocol: Then centrifuged the cells and washed twice with ice-cold PBS, and incubated for 20 min at 4 °C. A cell cycle assay was used to assess the cell cycle (Propidium Iodide Flow Cytometry Kit [ab13941]. Then perform statistical analysis for the result by the Cell quest software on the cell fractions in sub-G0/G1, S, and G2/M phases.

[1] = biological target: T1, Dihydrofolate Reductase (DHFR) (Homo sapiens, UniProt P00374); assay: DHFR inhibitors assay kit (absorbance 340 nm); assay type: biochemical; conditions: for %inh: DHFR
T1 construct: purchased abcam ab283374
T1 sequence (P00374 1-187): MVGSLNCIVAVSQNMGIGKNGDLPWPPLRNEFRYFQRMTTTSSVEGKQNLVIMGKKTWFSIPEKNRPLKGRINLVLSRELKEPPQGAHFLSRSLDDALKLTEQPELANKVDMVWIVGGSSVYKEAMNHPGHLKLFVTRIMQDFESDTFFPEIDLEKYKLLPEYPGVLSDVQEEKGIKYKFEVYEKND
Protocol: The DHFR inhibitors assay kit was performed according to abcam (code ab283374); (www.abcam.co.jp).
Firstly, Dilute 2 μL Dihydrofolate Reductase with798 μL DHFR Assay Buffer. Then add 98 μL of diluted Dihydrofolate Reductase into desired well(s) containing the out synthesized 8d compound. Add 40 μL of diluted NADPH to each well containing the test samples. Incubate at room temperature for 10–15 min. Add 60 μL of diluted DHFR substrate to each well containing the test samples vortex briefly and keep on ice. Measure the absorbance immediately at 340 nm. Then calculate the inhibition concentration of 8d compound. The data was analyzed and plot by Graphpad prism software.

[2] = MCF7 cells, compound at IC50, 48 h

%inh (Eef2 kinase; Eef2, conc 0.01 (log -2)): 16.5%
%inh (Eef2 kinase; Eef2, conc 0.1 (log -1)): 32.8%
%inh (Eef2 kinase; Eef2, conc 1 (log 0)): 48.2%
%inh (Eef2 kinase; Eef2, conc 10 (log 1)): 76.5%
%inh (Eef2 kinase; Eef2, conc 100 (log 2)): 91.7%
IC50 (Eef2 kinase; read-out: Eef2 kinase (IC50 ± SD)): 689 ± 36 nM
%inh ([1]; conc 0.01 (log -2)): 27.5%
%inh ([1]; conc 0.1 (log -1)): 38.9%
%inh ([1]; conc 1 (log 0)): 67.1%
%inh ([1]; conc 10 (log 1)): 85.7%
%inh ([1]; conc 100 (log 2)): 93%
IC50 ([1]; read-out: DHFR inhibition (IC50 ± SD)): 199 ± 16 nM
Compound: CC(=O)c1ccc(NC(=O)c2sc3nc(C)c4c(c3c2N)CC(C)(O)C(C(C)=O)C4c2ccc(N(C)C)cc2)cc1 (stereo not shown) [Compound 8d, 7-Acetyl-N-(4-acetylphenyl)-1-amino-5,8-dimethyl-8-hydroxy-6-(4-N,N-dimethylaminophenyl)-6,7,8,9-tetrahydrothieno[2,3-c]isoquinoline-2-carboxamide]
phase of cell cycle arrest (MCF7 cells; MCF7 cell line): S phase
DNA content %G0-G1 (MCF7 cells; [2]): 52.03%
DNA content %G2/M (MCF7 cells; [2]): 10.05%
DNA content %S (MCF7 cells; [2]): 37.92%
